Laboratory results published in patent publication US12398154B2, “Azaquinazoline pan-KRas inhibitors” (Mirati Therapeutics, Inc., priority 2020, dated 2025).

Tests used:
KRas G12A = KRas G12A (Homo sapiens, UniProt P01116, G12A); assay: biochemical;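 further: binding to KRas measured by TR-FRET displacement after one hour at room temperature, IC50 from a four-parameter fit of percent-of-control values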
Procedure: (§1) The ability of a compound to bind to KRas was measured using a TR-FRET displacement assay. […] After a 60-minute incubation at room temperature, the reaction was measured using a BMG LABTECH CLARIO star Plus via TR-FRET. […] The POC values were fit to a 4-parameter IC50 equation and the IC50 value reported.

KRas G12D = KRas G12D (Homo sapiens, UniProt P01116, G12D); assay: biochemical;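 further: TR-FRET displacement binding assay on KRas, read after a one-hour incubation at room temperature, IC50 fitted from percent-of-control values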
Procedure: as §1

KRas Q61H = molecular target: T1, KRas Q61H (Homo sapiens, UniProt P01116, Q61H); assay: KRas binding assay (TR-FRET displacement);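 further: TR-FRET signal read after one hour at room temperature, IC50 derived by four-parameter fitting of percent-of-control values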
T1 construct: Biotinylated KRas (corresponding to amino acids 1-169, produced at Accelegan Inc.); biotin (biotinylated); purchased Accelegan Inc
Procedure: as §1

KRas G13D = molecular target: T2, KRas G13D (Homo sapiens, UniProt P01116, G13D); assay: KRas binding assay (TR-FRET displacement);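 further: One-hour room temperature incubation before TR-FRET reading, IC50 from a four-parameter curve fit to percent-of-control data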
T2 construct: Biotinylated KRas (corresponding to amino acids 1-169, produced at Accelegan Inc.); biotin (biotinylated); purchased Accelegan Inc
Procedure: as §1

KRas WT = KRas WT (Homo sapiens, UniProt P01116); assay: biochemical;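 further: binding to KRas read as TR-FRET displacement after a one-hour room-temperature incubation, IC50 derived from percent-of-control values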
Procedure: as §1

KRas G12R = KRas G12R (Homo sapiens, UniProt P01116, G12R); assay: biochemical;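 further: TR-FRET displacement assay of compound binding to KRas, read after one hour at room temperature, potency from a four-parameter fit of percent-of-control values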
Procedure: as §1

KRas G12C = KRas G12C (Homo sapiens, UniProt P01116, G12C); assay: biochemical;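 further: binding to KRas assessed by TR-FRET displacement after one hour incubation at room temperature, potency fitted from percent-of-control values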
Procedure: as §1

KRas G12S = KRas G12S (Homo sapiens, UniProt P01116, G12S); assay: biochemical;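 further: TR-FRET displacement binding to KRas, read after one hour incubation at room temperature, IC50 from four-parameter fit of percent of control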
Procedure: as §1

KRas G12V = KRas G12V (Homo sapiens, UniProt P01116, G12V); assay: biochemical;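 further: KRas binding measured by TR-FRET displacement at room temperature, IC50 fitted from percent of control values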
Chain of KRas G12V (P01116 1-169 isoform P01116-2 G12V): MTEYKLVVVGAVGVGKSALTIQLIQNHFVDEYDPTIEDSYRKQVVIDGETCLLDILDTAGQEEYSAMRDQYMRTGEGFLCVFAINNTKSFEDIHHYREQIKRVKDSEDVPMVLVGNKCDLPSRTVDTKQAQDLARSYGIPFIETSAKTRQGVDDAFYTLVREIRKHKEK
Procedure: as §1

Chain of KRas G12C (P01116 1-169 isoform P01116-2 G12C): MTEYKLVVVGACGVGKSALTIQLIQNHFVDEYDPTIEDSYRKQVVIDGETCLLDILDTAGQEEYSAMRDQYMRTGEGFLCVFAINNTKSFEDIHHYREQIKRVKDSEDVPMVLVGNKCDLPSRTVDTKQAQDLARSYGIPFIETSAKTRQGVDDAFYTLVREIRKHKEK
T1 sequence (P01116 1-169 isoform P01116-2 Q61H): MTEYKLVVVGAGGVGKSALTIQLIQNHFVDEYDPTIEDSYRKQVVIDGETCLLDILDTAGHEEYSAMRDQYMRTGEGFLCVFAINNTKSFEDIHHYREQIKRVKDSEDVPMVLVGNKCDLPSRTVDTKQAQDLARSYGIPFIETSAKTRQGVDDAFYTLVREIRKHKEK
Chain of KRas G12D (P01116 1-169 isoform P01116-2 G12D): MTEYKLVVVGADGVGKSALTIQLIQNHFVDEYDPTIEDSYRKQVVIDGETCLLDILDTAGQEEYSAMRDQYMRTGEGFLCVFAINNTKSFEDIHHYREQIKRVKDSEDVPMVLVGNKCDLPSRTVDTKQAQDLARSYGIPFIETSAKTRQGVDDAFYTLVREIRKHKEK
Chain of KRas G12R (P01116 1-169 isoform P01116-2 G12R): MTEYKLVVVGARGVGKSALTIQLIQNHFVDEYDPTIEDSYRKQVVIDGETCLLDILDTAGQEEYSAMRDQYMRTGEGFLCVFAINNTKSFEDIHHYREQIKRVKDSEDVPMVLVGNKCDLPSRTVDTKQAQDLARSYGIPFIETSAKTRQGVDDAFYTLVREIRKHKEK
Chain of KRas G12A (P01116 1-169 isoform P01116-2 G12A): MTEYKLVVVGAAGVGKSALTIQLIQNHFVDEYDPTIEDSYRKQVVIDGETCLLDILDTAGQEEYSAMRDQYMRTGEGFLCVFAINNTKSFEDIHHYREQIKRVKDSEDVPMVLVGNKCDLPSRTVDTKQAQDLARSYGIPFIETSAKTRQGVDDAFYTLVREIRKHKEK
Chain of KRas G12S (P01116 1-169 isoform P01116-2 G12S): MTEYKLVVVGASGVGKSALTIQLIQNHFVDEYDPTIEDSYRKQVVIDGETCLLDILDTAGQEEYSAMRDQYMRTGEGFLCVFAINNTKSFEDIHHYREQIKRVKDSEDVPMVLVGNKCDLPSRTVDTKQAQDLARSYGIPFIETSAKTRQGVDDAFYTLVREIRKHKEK
T2 sequence (P01116 1-169 isoform P01116-2 G13D): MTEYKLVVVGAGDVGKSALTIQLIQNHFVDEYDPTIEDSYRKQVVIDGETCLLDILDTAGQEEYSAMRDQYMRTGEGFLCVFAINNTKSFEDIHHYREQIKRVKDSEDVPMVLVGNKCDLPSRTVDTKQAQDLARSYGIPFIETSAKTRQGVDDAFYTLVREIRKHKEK
Chain of KRas WT (P01116 1-169 isoform P01116-2): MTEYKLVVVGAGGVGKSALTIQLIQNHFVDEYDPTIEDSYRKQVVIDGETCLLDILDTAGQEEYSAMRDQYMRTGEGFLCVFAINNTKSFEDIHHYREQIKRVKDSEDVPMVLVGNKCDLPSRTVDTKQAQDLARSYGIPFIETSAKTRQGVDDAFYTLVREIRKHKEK

| Compound | IC50 (KRas G12A) | IC50 (KRas G12D) | IC50 (KRas Q61H) | IC50 (KRas G13D) | IC50 (KRas WT) | IC50 (KRas G12R) | IC50 (KRas G12C) | IC50 (KRas G12S) | IC50 (KRas G12V) |
| --- | --- | --- | --- | --- | --- | --- | --- | --- | --- |
| Fc1c(-c2cccc3cccc(F)c23)ncc2c(NCc3nnc4ncccn34)nc(OCC34CCCN3CCC4)nc12 [Example 121, N-([1,2,4]triazolo[4,3-a]pyrimidin 3 ylmethyl) 8-fluoro-7-(8-fluoronaphthalen-1-yl)-2-((tetrahydro-1H-pyrrolizin-7a(5H)-yl)methoxy)pyrido[4,3-d]pyrimidin-4-amine] | 15.5 µM | 42.8 µM | 25400 nM | 17300 nM | 13 µM | 12.3 µM | 9.1 µM | 18.6 µM | 6.64 µM |
| Fc1c(-c2cccc3cccc(F)c23)ncc2c(NCc3nnc4cccnn34)nc(OCC34CCCN3CCC4)nc12 [Example 122, N-([1,2,4]triazolo[4,3-b]pyridazin-3-ylmethyl)-8-fluoro-7-(8-fluoronaphthalen-1-yl)-2-((tetrahydro-1H-pyrrolizin-7a(5H)-yl)methoxy)pyrido[4,3-d]pyrimidin-4-amine] | 14.4 µM | ≥ 100 µM | 88200 nM | 86400 nM | 26 µM | 12.4 µM | 3.47 µM | 21.7 µM | 6.91 µM |
| Fc1c(-c2cccc3cccc(F)c23)ncc2c(N3CC=CCC3)nc(OCC34CCCN3CCC4)nc12 [Example 123, 4-(3,6-dihydropyridin-1 (2H)-yl)-8-fluoro-7-(8-fluoronaphthalen-1-yl)-2-((tetrahydro-1H-pyrrolizin-7a(5H)-yl)methoxy)pyrido[4,3-d]pyrimidine] | 3.18 µM | 4.44 µM | 4980 nM | 3480 nM | 3.5 µM | 7.5 µM | 2.34 µM | 2.76 µM | 3.19 µM |
| Fc1c(-c2cccc3cccc(F)c23)ncc2c(NCCCc3cccnc3)nc(OCC34CCCN3CCC4)nc12 [Example 124, 8-fluoro-7-(8-fluoronaphthalen-1-yl)-N-(3-(pyridin-3-yl)propyl)-2-((tetrahydro-1H-pyrrolizin-7a(5H)-yl)methoxy)pyrido[4,3-d]pyrimidin-4-amine] | 2.07 µM | 12.6 µM | 7140 nM | 7820 nM | 7.02 µM | 2.19 µM | 1.48 µM | 3.87 µM | 1.51 µM |
| Fc1c(-c2cccc3cccc(F)c23)ncc2c(NCc3ccc4nonc4c3)nc(OCC34CCCN3CCC4)nc12 [Example 125, N-(benzo[c][1,2,5]oxadiazol-5-ylmethyl)-8-fluoro-7-(8-fluoronaphthalen-1-yl)-2-((tetrahydro-1H-pyrrolizin-7a(5H)-yl)methoxy)pyrido[4,3-d]pyrimidin-4-amine] | 5.52 µM | 60.4 µM | 39000 nM | 29100 nM | 13.3 µM | 4.39 µM | 4.25 µM | 7.42 µM | 3.92 µM |
| Nc1cc2n(n1)CCN(c1nc(OCC34CCCN3CCC4)nc3c(F)c(-c4cccc5cccc(F)c45)ncc13)C2 [Example 126, 5-(8-fluoro-7-(8-fluoronaphthalen-1-yl)-2-((tetrahydro-1H-pyrrolizin-7a(5H)-yl)methoxy)pyrido[4,3-d]pyrimidin-4-yl)-4,5,6,7-tetrahydropyrazolo[1,5-a]pyrazin-2-amine] | 13.8 µM | 67.3 µM | 7500 nM | 7290 nM | 5.97 µM | 18.4 µM | 9.29 µM | 3.97 µM | ≥ 100 µM |
| O=S1(=O)CC(CNc2nc(OCC34CCCN3CCC4)nc3c(F)c(-c4cccc5cccc(F)c45)ncc23)C1 [Example 127, 3-(((8-fluoro-7-(8-fluoronaphthalen-1-yl)-2-((tetrahydro-1H-pyrrolizin-7a(5H)-yl)methoxy)pyrido[4,3-d]pyrimidin-4-yl)amino)methyl)thietane 1,1-dioxide] | 2.68 µM | 25.1 µM | 11100 nM | 8700 nM | 4.22 µM | 2.58 µM | 2.19 µM | 1.72 µM | 1.7 µM |
| O=S1(=O)CC[C@H](CNc2nc(OCC34CCCN3CCC4)nc3c(F)c(-c4cccc5cccc(F)c45)ncc23)N1 [Example 128, (R)-3-(((8-fluoro-7-(8-fluoronaphthalen-1-yl)-2-((tetrahydro-1H-pyrrolizin-7a(5H)-yl)methoxy)pyrido[4,3-d]pyrimidin-4-yl)amino)methyl)isothiazolidine 1,1-dioxide] | 11.5 µM | 49 µM | 18400 nM | 13400 nM | 12.8 µM | 4.14 µM | 9.57 µM | 7.8 µM | 8.79 µM |
| OC1CCCN(c2nc(OCC34CCCN3CCC4)nc3c(F)c(-c4cccc5cccc(F)c45)ncc23)CC1 (stereo not drawn) [Example 129, 1-(8-fluoro-7-(8-fluoronaphthalen-1-yl)-2-((tetrahydro-1H-pyrrolizin-7a(5H)-yl)methoxy)pyrido[4,3-d]pyrimidin-4-yl)azepan-4-ol] | 2.69 µM | 2.26 µM | 4360 nM | 2500 nM | 3.11 µM | 4.43 µM | 2.53 µM | 2.79 µM | 2.79 µM |
| OCC1CCCCN(c2nc(OCC34CCCN3CCC4)nc3c(F)c(-c4cccc5cccc(F)c45)ncc23)C1 (stereo not drawn) [Example 130, (1-(8-fluoro-7-(8-fluoronaphthalen-1-yl)-2-((tetrahydro-1H-pyrrolizin-7a(5H)-yl)methoxy)pyrido[4,3-d]pyrimidin-4-yl)azepan-3-yl)methanol] | 10.5 µM | 8.36 µM | 21900 nM | 25800 nM | 11.4 µM | 18.3 µM | 9.08 µM | 14.2 µM | 10.8 µM |
| Fc1c(-c2cccc3cccc(F)c23)ncc2c(N3CCCC(c4cc[nH]n4)C3)nc(OCC34CCCN3CCC4)nc12 (stereo not drawn) [Example 131, 4-(3-(1H-pyrazol-3-yl)piperidin-1-yl)-8-fluoro-7-(8-fluoronaphthalen-1-yl)-2-((tetrahydro-1H-pyrrolizin-7a(5H)-yl)methoxy)pyrido[4,3-d]pyrimidine] | 4.46 µM | 14.6 µM | 7690 nM | 6560 nM | 8.21 µM | 2.79 µM | 3.45 µM | 9.29 µM | 8.3 µM |
| Cc1cc2[nH]ncc2c(-c2ncc3c(N4CCCC(C)(O)C4)nc(OCC45CCCN4CCC5)nc3c2F)c1C1CC1 (stereo not drawn) [Example 144, 1-(7-(5-cyclopropyl-6-methyl-1H-indazol-4-yl)-8-fluoro-2-((tetrahydro-1H-pyrrolizin-7a(5H)-yl)methoxy)pyrido[4,3-d]pyrimidin-4-yl)-3-methylpiperidin-3-ol] | 0.071 µM | 0.043 µM | 82 nM | 60 nM | 0.074 µM | 0.096 µM | 0.077 µM | 0.065 µM | 0.048 µM |
| O=C1NC(=O)C2(CCCN(c3nc(OCC45CCCN4CCC5)nc4c(F)c(-c5cccc6cccc(F)c56)ncc34)C2)N1 (stereo not drawn) [Example 158, 7-(8-fluoro-7-(8-fluoronaphthalen-1-yl)-2-((hexahydro-1H-pyrrolizin-7a-yl)methoxy)pyrido[4,3-d]pyrimidin-4-yl)-1,3,7-triazaspiro[4.5]decane-2,4-dione] | 0.085 µM | 0.152 µM | 102 nM | 83 nM | 0.103 µM | 0.081 µM | 0.041 µM | 0.069 µM | 0.078 µM |
| CCc1cccc2cccc(-c3ncc4c(NCc5cccnc5N)nc(OCC56CCCN5CCC6)nc4c3F)c12 [Example 204, N-((2-aminopyridin-3-yl)methyl)-7-(8-ethylnaphthalen-1-yl)-8-fluoro-2-((hexahydro-1H-pyrrolizin-7a-yl)methoxy)pyrido[4,3-d]pyrimidin-4-amine] | 0.038 µM | 1.29 µM | 283 nM | 317 nM | 0.233 µM | 0.021 µM | 0.02 µM | 0.051 µM | 0.043 µM |
| CCc1cccc2cccc(-c3ncc4c(NCc5c[nH]c6ncccc56)nc(OCC56CCCN5CCC6)nc4c3F)c12 [Example 205, N-((1H-pyrrolo[2,3-b]pyridin-3-yl)methyl)-7-(8-ethylnaphthalen-1-yl)-8-fluoro-2-((hexahydro-1H-pyrrolizin-7a-yl)methoxy)pyrido[4,3-d]pyrimidin-4-amine] | 0.013 µM | 0.307 µM | 95 nM | 69 nM | 0.08 µM | 0.007 µM | 0.01 µM | 0.016 µM | 0.008 µM |
| Fc1c(-c2cccc3cccc(F)c23)ncc2c(OCCCc3cccnc3)nc(OCC34CCCN3CCC4)nc12 [Example 207, 8-fluoro-7-(8-fluoronaphthalen-1-yl)-4-(3-(pyridin-3-yl)propoxy)-2-((tetrahydro-1H-pyrrolizin-7a(5H)-yl)methoxy)pyrido[4,3-d]pyrimidine] | 18.1 µM | 17.3 µM | 46400 nM | 30400 nM | 26.7 µM | 13.1 µM | 11.8 µM | 46.2 µM | 6.17 µM |
